These results are taken from PMC11672137, “High-Affinity Lectin Ligands Enable the Detection of Pathogenic Pseudomonas aeruginosa Biofilms: Implications for Diagnostics and Therapy” (JACS Au, 2024).

One may read the IC50 as the concentration needed to halve the response being measured.

The target in test [1] is T1, LecA (Pseudomonas aeruginosa, UniProt Q05097).
T1 construct: made in house
Kind of test: Direct binding assay based on fluorescence polarization, titration with LecA. As to conditions: negative controls. In general terms: Fluorescence polarisation rises when a labelled molecule tumbles more slowly, as on binding a larger partner.
Experimental: The binding affinities of imaging probes 2–4 for LecA were determined using a direct binding assay based on fluorescence polarization (FP).[47]
(A, C) Monovalent LecA imaging probes 2–4 based on phenyl β-D-galactoside (1) were titrated with LecA. […] (E) Xyloside-fluorescein conjugate (8) and azido fluorescein (9) served as negative controls in titrations with LecA and LecB, respectively. Averages and standard deviations were determined from at least three independent titrations of technical triplicates each.
(§1) Direct binding affinity determination of LecA and LecB imaging probes was performed with direct titration of protein and imaging probes in TBS/Ca2+ buffer. Protein dilution series was prepared in 96 well plates and 10 µL of each dilution in triplicates were mixed with 10 µL of fluorescent compound (20 nM) in 384-well microtiter plates (Greiner Bio-One, Germany, cat no 781900). The plates were centrifuged (1 min, 500 g), sealed and incubated for 2 h in dark wet chamber under gentle shaking. Fluorescence was measured on a PheraStar FS plate reader (BMG Labtech GmbH, Germany) with excitation filters at 485 nm and emission filters at 535 nm. The data were analysed with MARS Data Analysis Software (BMG Labtech GmbH, Germany) to calculate Kd values.

The test system of test [2] is P. aeruginosa PAO1 biofilm aggregates. Kind of test: In vitro biofilm staining under static conditions (CLSM). In kind it is cell-based, Pseudomonas aeruginosa. The following applies: 10 μM probe. The method, then:
The ability of LecA- and LecB-targeting probes to image P. aeruginosa biofilms was evaluated in vitro. P. aeruginosa PAO1, constitutively expressing mCherry from plasmid pMP7605,[56] was cultivated in microtiter plates under shaking conditions to form biofilm aggregates, as reported previously.[43] Fluorescein-carbohydrate conjugates were added to the bacterial culture to reach a final concentration of 10 μM and biofilms were analyzed by confocal laser scanning microscopy (CLSM) under static conditions (Figures 2 and S4). […] To our surprise, the intended negative control xyloside 8 also stained the P. aeruginosa biofilms (Figures 2C and S4). In all cases, the green signal originating from the fluorescein conjugates was not homogeneously spread over the entire structure of the biofilm aggregates, but a certain heterogeneity was observed across biofilm regions as bright spots. Further, the intensity of staining varied between replicates (see the Supporting Information for individual experiments). […] Instead, only a very faint green shadow was detected for 9 indicating its suitability as a negative control. Thus, the observed biofilm staining with imaging probes 2, 3, 6, 7 and also xyloside 8 was carbohydrate dependent and while 2, 3 and 6, 7 are ligands of LecA and LecB, respectively, the molecular mechanism of xyloside 8 remains elusive.
One representative image of stained aggregates is shown. […] Scale bar = 50 μm.
P. aeruginosa PAO1 expressing the red fluorescent protein mCherry (pMP7605)23 was selected for this study. For this, P. aeruginosa PAO1 (DSM 19880, Braunschweig, Germany) was transformed with the mCherry plasmid (pMP7605).23 Bacteria were stored at -80 °C. For experimental use, bacteria were streaked on lysogeny broth (LB) agar (1% tryptone, 1% NaCl, 0,5% yeast extract, 1.3% agar) containing 60 µg/mL gentamicin (Gm) and incubated at 37 °C overnight. For liquid cultures, bacterial colonies were transferred from LB agar to 10 mL LB (1% tryptone, 1% NaCl, 0,5% yeast extract) containing 60 µg/mL Gm and incubated at 37 °C and 180 rpm overnight. For exponential growth, 10 mL of LB containing 60 µg/mL Gm were inoculated with P. aeruginosa PAO1 mCherry (pMP7605)23 using an overnight liquid culture […]
In vitro biofilm staining under static conditions
Biofilm staining experiments were performed in analogy to Wagner et al. with P. aeruginosa PAO1 pMP7605 (Figure S4).23,24 Bacterial overnight cultures were inoculated from single colonies in 5 mL LB supplemented with gentamicin (120 µg/mL) and grown at 37 °C and 180 rpm. The bacterial overnight cultures were then diluted to OD600 of 0.02 with LB and 500 µL of culture per well were transferred to 24-well plate (24CG, Art. No. 5231 or 24FC, Art. No. 3231). The biofilm was grown under shaking conditions (180 rpm) at 37 °C for 20–24 h. Biofilm aggregates were visualized using a confocal laser scanning microscope (Leica TCS Sp8 CLSM) using a 25× numerical-aperture water objective. Z-stacks (463 x 463 μm) were recorded every 2 μm for mCherry (ex.: 561 nm, red) and for fluorescein containing imaging compounds (ex.: 488 nm, green). […]
Maximum Intensity Projections (contrast range automatically adjusted by Imaris). Only one staining experiment was carried out for imaging probes 4 and S26, all other fluorescein conjugates were analyzed in at least three independent experiments.

For a further test, the target named is T2, LecB (PAO1) (Pseudomonas aeruginosa, UniProt Q9HYN5).
T2 construct: made in house
T2 sequence (Q9HYN5 entry or part of it): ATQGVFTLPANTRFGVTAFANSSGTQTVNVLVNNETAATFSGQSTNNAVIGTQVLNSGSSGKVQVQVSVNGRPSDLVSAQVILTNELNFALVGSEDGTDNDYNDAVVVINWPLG
Kind of test: Direct binding assay based on fluorescence polarization, titration with LecB. As to conditions: negative control.

Test [3] addresses T1, LecA. Kind of test: Competitive binding assay based on fluorescence polarization, LecA. As to conditions: LecA 20 µM, reporter ligand S38, 2% DMSO; read-out: IC50 (competitive binding, FP). As for the experimental part: Next, binding of the optimized divalent ligand 17 and its synthetic precursor 16 to LecA was evaluated by fluorescence polarization-based (FP) assays,[47] SPR, and ITC. […] Therefore, fluorescent ligand 17 was analyzed in a direct binding experiment by FP. […] The dissociation constants for 16 were 47.2 ± 11.3 nM (ITC) and 47.8 ± 44.1 nM (steady-state SPR), while for 17, the values were 64.1 ± 31.1 nM and 79.3 ± 24.9 nM (steady-state SPR). For the SPR experiments, Kd was also determined by single-cycle kinetic analysis resulting in approximately five times higher affinity, but the data have limited reliability due to suboptimal fit for the kinetic curves (Figures S13B and S14).[58]−[60] […]
137 mM NaCl, 2.6 mM KCl at pH 7.4 supplemented with 1 mM CaCl2). Protein concentration was determined by UV spectroscopy at 280 nm using a molar extinction coefficient of 27 960 M-1 cm-1 for LecA and 6 990 M-1 cm-1 for LecB.
All synthesized alkyne precursors (S5m, S5p, S6m, S6p, S11, 25, S16, S22 and S24) were analysed in the previously established competitive binding assays based on fluorescence polarization (Figure S2).18,19 Galactose-based compounds (S5m, S5p, S6m, S6p, S11) were evaluated against LecA and C-glycoside-based compounds […] and S16 against LecB. […]
PheraStar FS plate reader (BMG Labtech GmbH, Germany) with excitation filters at 485 nm and emission filters at 535 nm. […]

T1 sequence (Q05097 whole entry): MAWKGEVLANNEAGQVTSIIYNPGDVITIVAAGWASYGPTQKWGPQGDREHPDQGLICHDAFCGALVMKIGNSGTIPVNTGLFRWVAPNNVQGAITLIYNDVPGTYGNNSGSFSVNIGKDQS
Experimental for LecB (PAO1): Averages and standard deviations were determined from at least three independent titrations of technical triplicates each.
as §1

Consider `O=C1OC2(c3ccc(O)cc3Oc3cc(O)ccc32)c2ccc(NC(=S)NCCOCCOCCOCCn3cc(CNc4ccc(S[C@@H]5OC[C@@H](O)[C@H](O)[C@H]5O)cc4)nn3)cc21` [compound 8], for which the “Binding to LecA in direct FP titration” value on LecA [1] was “inability to bind”. In addition, the “Staining of biofilm aggregates” value in test [2] is “also stained”. The “Binding to LecB in direct FP titration” value at LecB (PAO1) was “inability to bind”.

On to `O=[N+]([O-])c1ccc(O[C@@H]2O[C@H](CO)[C@H](O)[C@H](O)[C@H]2O)cc1` [para-nitrophenyl β-D-galactoside], for which, at LecA [3], the IC50 came to 39.7 ± 11.5 µM.
